Measured values from patent publication US20180250306A1, “ALDEHYDE CONJUGATES AND USES THEREOF” (ALDEYRA THERAPEUTICS, INC., priority 2015, published 2018).

Columns and labels:
[1] = Aldehyde adduct formation over time (product HPLC peak); settings: for Formation of Product, ranking, 7 Hours / Formation of Product, ranking, 23 Hours: rank from most effective (1) to least
Protocol: It is not possible to conclude if this is the result of poor dissociation (from cyclodextrin) or poor interaction with the aldehyde. Best fit lines over this period give excellent fit to data. […] It can be used to relatively rank each of the samples examined, including NS2. The data were first evaluated over a 7 h time window.

[2] = Consumption of 4HNE over time (HPLC, 254 nm); settings: for Consumption of 4HNE, ranking, 7 Hours / Consumption of 4HNE, ranking, 23 Hours: rank from most effective (1) to least; for Consumption of 4HNE, ranking, 23 Hours: ranks 1-4 essentially identical; for decrease in HNE relative to corresponding increase in adduct: 1 week time period
From the text: 5 of 6 samples show consumption of 4HNE. One sample (2-(3-aminoquinolin-2-yl)propan-2-ol) overlaps 4HNE HPLC peak using current method. Best fit lines over this period give poorer fit to data than product formation data. Rate of 4HNE consumption can be used as an approximation of binding kinetics. […] The data were used to rank relatively each of the samples examined, including NS-2 but excluding 2-(3-aminoquinolin-2-yl)propan-2-ol.

Row | SMILES | Gradient of product HPLC peak increase (rate of adduct formation) ([1]; 7 h time window) | Gradient of product HPLC peak increase (rate of adduct formation) ([1]; 23 h time window) | Formation of Product, ranking, 7 Hours [1] | Formation of Product, ranking, 23 Hours [1] | Gradient of 4HNE consumption ([2]; 23 h) | Gradient of 4HNE consumption ([2]; first 7 h, analysis at 254 nm) | Consumption of 4HNE, ranking, 7 Hours [2] | Consumption of 4HNE, ranking, 23 Hours [2] | decrease in HNE relative to corresponding increase in adduct [2]
1 | CC(C)(O)c1nc2cccc(Cl)c2cc1N [2-(3-amino-5-chloroquinolin-2yl)propan-2-ol] | (Gradient 0.86, | (Gradient 0.44, | 6 | 6 | (Gradient −0.04, | (Gradient −0.05, | 3 | 2 | 
2 | CC(C)(O)c1nc2ccc(Br)cc2cc1N [2-(3-amino-6-bromoquinolin-2-yl)propan-2-ol] | (Gradient 1.63, | (Gradient 1.16, | 4 | 4 | (Gradient −0.04, | (Gradient −0.04, | 4 | 4 | 
3 | CC(C)(O)c1nc2cc(Cl)ccc2cc1N [2-(3-amino-7-chloroquinolin-2-yl)propan-2-ol] | (Gradient 2.02, | (Gradient 1.21, | 3 | 3 | (Gradient −0.05, | (Gradient −0.06, | 2 | 1 | greater
4 | CC(C)(O)c1nc2c(Cl)cccc2cc1N [2-(3-amino-8-chloroquinolin-2-yl)propan-2-ol] | (Gradient 1.18, | (Gradient 0.81, | 5 | 5 | (Gradient −0.02, | (Gradient −0.01, | 5 | 5 | greater
5 | CC(C)(O)c1nc2ccccc2cc1N [2-(3-aminoquinolin-2-yl)propan-2-ol] | (Gradient 3.68, | (Gradient 1.99, | 1 | 1 |  |  |  |  | 
